Results on 16 molecules are retold here after article PMC8370666 (Journal of the Iranian Chemical Society, 2021).

Assay in all cases: biochemical
In assay [1] the target is SARS-CoV nsp14 (Severe acute respiratory syndrome coronavirus, UniProt P0C6X7). To be noted: for IC50: SARS-Cov nap14 IC50; for inhibition at 50 µM: read-out: % of inhibition at 50 μM, SARs-Cov nsp 14.
Assay [2] has as its target human RNA N7-MTase (hRNMT) (Homo sapiens, UniProt O43148). The format is biochemical. To be noted: for inhibition at 50 µM: read-out: % of inhibition at 50 μM, hRNMT.
The target of assay [3] is vaccinia virus capping enzyme (D1-D12) (Vaccinia virus, UniProt P04298). To be noted: read-out: % of inhibition at 50 μM, Vaccinia virus D1-D12.

Chain of human RNA N7-MTase (hRNMT) (O43148 whole entry): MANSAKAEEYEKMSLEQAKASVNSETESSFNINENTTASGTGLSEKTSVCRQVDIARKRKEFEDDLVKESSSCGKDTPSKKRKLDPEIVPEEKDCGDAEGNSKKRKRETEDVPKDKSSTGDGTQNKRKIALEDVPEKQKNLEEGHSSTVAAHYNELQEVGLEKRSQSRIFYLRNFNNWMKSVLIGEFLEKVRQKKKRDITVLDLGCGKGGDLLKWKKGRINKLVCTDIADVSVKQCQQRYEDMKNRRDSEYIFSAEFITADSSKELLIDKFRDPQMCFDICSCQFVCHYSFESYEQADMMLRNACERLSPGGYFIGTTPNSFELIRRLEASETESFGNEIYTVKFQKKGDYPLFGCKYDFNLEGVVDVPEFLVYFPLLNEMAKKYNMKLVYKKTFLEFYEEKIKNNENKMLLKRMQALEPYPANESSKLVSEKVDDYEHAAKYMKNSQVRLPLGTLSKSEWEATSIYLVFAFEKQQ

One may read the IC50 as the concentration that inhibits the measured activity by half. What is called inhibition is the share of the control response that was lost under treatment. As for `N#CC1=C(N)OC2=C(CC(=O)CC2)C1c1ccccc1` (centres unmarked) [Compound 4a, 2-Amino-6-oxo-4-phenyl-5,6,7,8-tetrahydro-4H-chromene-3-carbonitrile], in assay [1], the midpoint of inhibition, the IC50, lay at 0.63 ± 0.32 µM and the inhibition at 50 µM is 93.4 ± 3.68%. Moreover, in assay [2], the “% of inhibition at 50 μM, hRNMT” value is reported as “high inhibitions”; the IC50 is less than 0.05 µM; the inhibition at 50 µM amounted to 92.3 ± 5.41%. The inhibition at 50 µM in assay [3] came out at 89.3 ± 7.89%.
On to `N#CC1=C(N)OC2=C(CC(=O)CC2)C1c1ccccc1Cl` (centres unmarked) [Compound 4b, 2-Amino-4-(2-chlorophenyl)-6-oxo-5,6,7,8-tetrahydro-4H-chromene-3-carbonitrile], for which, in assay [1], it took 0.62 ± 0.32 µM to reach half-maximal inhibition (IC50) and the inhibition at 50 µM turned out to be 87.5 ± 8.21%. In assay [2], the “% of inhibition at 50 μM, hRNMT” value was “high inhibitions”; inhibition was half-maximal at 0.41 ± 0.26 µM (IC50); the inhibition at 50 µM worked out at 94.6 ± 7.68%. For the same molecule, the inhibition at 50 µM in assay [3] was 98.3 ± 5.42%.
As to `COc1ccc(C2C(C#N)=C(N)OC3=C2CC(=O)CC3)cc1` (centres unmarked) [Compound 4c, 2-Amino-4-(4-methoxyphenyl)-6-oxo-5,6,7,8-tetrahydro-4H-chromene-3-carbonitrile], the values for the IC50 in assay [1] and in assay [2] were 16.4 ± 2.7 µM and 32.6 ± 1.7 µM, respectively. Also, the inhibition at 50 µM came out at 34.6 ± 4.62% in assay [1], 51.7 ± 4.62% in assay [2] and 49.4 ± 6.92% in assay [3].
On to `N#CC1=C(N)OC2=C(c3sc(N)c(C#N)c3CC2)C1c1ccccc1` (centres unmarked) [Compound 6a, 2,7-Diamino-9-phenyl-5,9-dihydro-4H-thieno[2,3-f]chromene-3,8-dicarbonitrile], for which, in assay [1], the midpoint of inhibition, the IC50, lay at 26.4 ± 3.57 µM and the inhibition at 50 µM amounted to 68.2 ± 4.53%. Further, in assay [2], the “% of inhibition at 50 μM, hRNMT” value was “high inhibitions”; the half-maximal inhibitory concentration (IC50) was determined as 36.5 ± 6.27 µM; the inhibition at 50 µM stood at 80.3 ± 3.74%. In addition, the inhibition at 50 µM in assay [3] was 79.3 ± 5.37%.
On to `COc1ccc(C2C(C#N)=C(N)OC3=C2c2sc(N)c(C#N)c2CC3)cc1` (centres unmarked) [Compound 6c, 2,7-Diamino-9-(4-methoxyphenyl)-5,9-dihydro-4H-thieno[2,3-f]chromene-3,8-dicarbonitrile], for which, in assay [1], the IC50 was found to be 0.45 ± 0.19 µM and the inhibition at 50 µM stood at 88.2 ± 4.26%. For the same molecule, in assay [2], the “% of inhibition at 50 μM, hRNMT” value is listed as “high inhibitions”; the IC50 was less than 0.05 µM; the inhibition at 50 µM came out at 92.2 ± 5.22%. Also, the inhibition at 50 µM in assay [3] was determined as 92.2 ± 5.22%.
Turning to `CCOC(=O)c1c(N)sc2c1CCC1=C2C(c2ccccc2)C(C#N)=C(N)O1` (centres unmarked) [Compound 6d, Ethyl 2,7-diamino-8-cyano-9-phenyl-5,9-dihydro-4H-thieno[2,3-f]chromene-3-carboxylate], the IC50 in assay [1] was found to be 26.7 ± 5.73 µM; in assay [2], 10.5 ± 2.69 µM. For the same molecule, the inhibition at 50 µM in assay [1] was found to be 42.6 ± 4.65%; in assay [2], 40.3 ± 6.27%; in assay [3], 36.3 ± 5.22%.
Turning to `CCOC(=O)c1c(N)sc2c1CCC1=C2C(c2ccccc2Cl)C(C#N)=C(N)O1` (centres unmarked) [Compound 6e, Ethyl 2,7-diamino-9-(2-chlorophenyl)-8-cyano-5,9-dihydro-4H-thieno[2,3-f]chromene-3-carboxylate], in assay [1], 0.39 ± 0.25 µM corresponded to half-maximal inhibition (IC50) and the inhibition at 50 µM stood at 89.2 ± 8.27%. Besides, in assay [2], the “% of inhibition at 50 μM, hRNMT” value is on record as “high inhibitions”; the IC50 came out at 0.29 ± 0.08 µM; the inhibition at 50 µM came to 80.2 ± 6.28%. The inhibition at 50 µM in assay [3] was 92.5 ± 6.9%.
For the molecule `CCOC(=O)c1c(N)sc2c1CCC1=C2C(c2ccc(OC)cc2)C(C#N)=C(N)O1` (centres unmarked) [Compound 6f, Ethyl 2,7-diamino-8-cyano-9-(4-methoxyphenyl)-5,9-dihydro-4H-thieno[2,3-f]chromene-3-carboxylate], the IC50 stood at 36.4 ± 4.51 µM in assay [1] and 1.26 ± 0.58 µM in assay [2]. Also, the figures for the inhibition at 50 µM in assay [1], in assay [2] and in assay [3] were 58.3 ± 3.65%, 62.5 ± 5.84% and 44.8 ± 5.08%, respectively.
`N#CC1=C(N)OC2=C(C=C(c3c(N)n[nH]c3N)CC2)C1c1ccccc1Cl` (centres unmarked) [Compound 9a, 2-Amino-4-(2-chlorophenyl)-6-(3,5-diamino-1H-pyrazol-4-yl)-7,8-dihydro-4H-chromene-3-carbonitrile]: in assay [1], the IC50 is 0.42 ± 0.19 µM and the inhibition at 50 µM amounted to 96.3 ± 2.4%. In addition, in assay [2], the “% of inhibition at 50 μM, hRNMT” value was “high inhibitions”; the IC50 was less than 0.05 µM; the inhibition at 50 µM was determined as 93.6 ± 3.71%. Moreover, the inhibition at 50 µM in assay [3] turned out to be 95.5 ± 3.23%.
Take `N#CC1=C(N)OC2=C(C=C(c3c(N)nn(-c4ccccc4)c3N)CC2)C1c1ccccc1Cl` (centres unmarked) [Compound 9b, 2-Amino-4-(2-chlorophenyl)-6-(3,5-diamino-1-phenyl-1H-pyrazol-4-yl)-7,8-dihydro-4H-chromene-3-carbonitrile]: in assay [1], the IC50 is 0.36 ± 0.2 µM and the inhibition at 50 µM was 93.3 ± 4.17%. In assay [2], the “% of inhibition at 50 μM, hRNMT” value is reported as “high inhibitions”; half-maximal inhibition (IC50) was put at 1.91 ± 1.32 µM; the inhibition at 50 µM stood at 90.3 ± 5.2%. Besides, the inhibition at 50 µM in assay [3] was determined as 96.1 ± 2.48%.
Turning to `CC1=CSC(=C2C(=O)CCC3=C2C(c2ccccc2Cl)C(C#N)=C(N)O3)N1c1ccccc1` (centres unmarked) [Compound 15, 2-Amino-4-(2-chlorophenyl)-5-(4-methyl-3-phenylthiazol-2(3H)-ylidene)-6-oxo-5,6,7,8-tetrahydro-4H-chromene-3-carbonitrile], in assay [1], the IC50 was found to be 22.6 ± 3.58 µM and the inhibition at 50 µM worked out at 89.2 ± 5.83%. Also, in assay [2], the “% of inhibition at 50 μM, hRNMT” value was “high inhibitions”; the IC50 was 4.91 ± 2.34 µM; the inhibition at 50 µM stood at 87.3 ± 6.42%. The inhibition at 50 µM in assay [3] came to 90.4 ± 5.68%.
Consider `CCOC(=O)CSC(Nc1ccccc1)=C1C(=O)CCC2=C1C(c1ccccc1Cl)C(C#N)=C(N)O2` (centres unmarked) [Compound 16, Ethyl 2-(((2-amino-4-(2-chlorophenyl)-3-cyano-6-oxo-7,8-dihydro-4H-chromen-5(6H)-ylidene)(phenylamino)methyl)thio)acetate], for which, in assay [1], the midpoint of inhibition, the IC50, lay at 0.53 ± 0.18 µM and the inhibition at 50 µM came to 89.2 ± 6.58%. For the same molecule, in assay [2], the “% of inhibition at 50 μM, hRNMT” value is “high inhibitions”; the IC50 is 1.29 ± 0.98 µM; the inhibition at 50 µM worked out at 90.3 ± 4.66%. Further, the inhibition at 50 µM in assay [3] came to 84.3 ± 6.29%.
For the molecule `O=C1CCc2c(sc(=S)n2-c2ccccc2)C1` [Compound 18, 3-Phenyl-2-thioxo-2,3,4,5-tetrahydrobenzo[d]thiazol-6(7H)-one], the IC50 in assay [1] was found to be 53.3 ± 5.62 µM; in assay [2], 26.5 ± 6.28 µM. Also, the results for the inhibition at 50 µM in assay [1], in assay [2] and in assay [3] were 56.4 ± 5.73%, 65.5 ± 4.8% and 63.7 ± 7.08%, respectively.
Consider `CCOC1C(C#N)=C(N)OC2=C1c1sc(=S)n(-c3ccccc3)c1CC2` (centres unmarked) [Compound 20a, 7-Amino-9-ethoxy-3-phenyl-2-thioxo-3,4,5,9-tetrahydro-2H-chromeno[6,5-d]thiazole-8-carbonitrile], for which the half-maximal inhibitory concentration (IC50) worked out at 42.4 ± 5.63 µM in assay [1] and 58.3 ± 4.95 µM in assay [2]. Moreover, the inhibition at 50 µM was 49.2 ± 6.73% in assay [1], 70.4 ± 5.9% in assay [2] and 53.5 ± 8.25% in assay [3].
The like results for `CCOC1C(C#N)=C(O)OC2=C1c1sc(=S)n(-c3ccccc3)c1CC2` (centres unmarked) [Compound 20b, 9-Ethoxy-7-hydroxy-3-phenyl-2-thioxo-3,4,5,9-tetrahydro–2H-chromeno[6,5-d]thiazole-8-carbonitrile] were, in that order, 32.6 ± 3.8 µM, 18.8 ± 5.36 µM, 36.1 ± 6.83%, 39.5 ± 6.83% and 41.4 ± 4.93%.
Consider `Nc1ncnc2c1ncn2[C@@H]1O[C@H](C[C@@H](N)CC[C@H](N)C(=O)O)[C@@H](O)[C@H]1O` [Sinefungin, reference compound], for which the inhibition at 50 µM in assay [1] turned out to be 98.36 ± 0.23%. The IC50 in assay [2] was less than 0.05 µM.
